These results are taken from PubChem BioAssay AID1259407 (Chemical Carcinogenesis Research Information System (CCRIS), 2018).

The data set deals with CCRIS mutagenicity, Ames/micronucleus/aberration tests. Nature of the data set: CCRIS mutagenicity studies.
Where [1] appears, read: Test System: AMES SALMONELLA TYPHIMURIUM, Strain/Indicator: TA100, Metabolic Activation: NONE, Method: STANDARD PLATE.
The mark [2] stands for this setting: Test System: AMES SALMONELLA TYPHIMURIUM, Strain/Indicator: TA100, Metabolic Activation: S-9, Method: STANDARD PLATE.
Setting [3] is: Test System: AMES SALMONELLA TYPHIMURIUM, Strain/Indicator: TA98, Metabolic Activation: NONE, Method: STANDARD PLATE.
[4] abbreviates: Test System: AMES SALMONELLA TYPHIMURIUM, Strain/Indicator: TA1535, Metabolic Activation: NONE, Method: STANDARD PLATE.
Setting [5] is: Test System: AMES SALMONELLA TYPHIMURIUM, Strain/Indicator: TA1537, Metabolic Activation: NONE, Method: STANDARD PLATE.

Activity calls are given as the source filed them. How the calls were made is not given here.

Turning to `CCn1cc(C(=O)O)c(=O)c2ccc(C)nc21`, the mutagenic call is “inactive; negative” (End Point: In vitro micronucleus, Test System: WTK-1 human lymphoma cells, Metabolic Activation: None); “inactive; negative” (Test System: AMES SALMONELLA TYPHIMURIUM, Strain/Indicator: TA97, Metabolic Activation: HAMSTER, LIVER, S-9, AROCLOR 1254 (10% OR 30%), Method: PREINCUBATION); “inactive; negative” (Test System: AMES SALMONELLA TYPHIMURIUM, Strain/Indicator: TA97, Metabolic Activation: HAMSTER, LIVER, S-9, AROCLOR 1254 (10 OR 30%), Method: PREINCUBATION); “inactive; negative” (Test System: AMES SALMONELLA TYPHIMURIUM, Strain/Indicator: TA97, Metabolic Activation: NONE, Method: PREINCUBATION); “inactive; negative” (Test System: AMES SALMONELLA TYPHIMURIUM, Strain/Indicator: TA97, Metabolic Activation: RAT, LIVER, S-9, AROCLOR 1254 (10% OR 30%), Method: PREINCUBATION); “inactive; negative” (Test System: AMES SALMONELLA TYPHIMURIUM, Strain/Indicator: TA97, Metabolic Activation: RAT, LIVER, S-9, AROCLOR 1254 (10 OR 30%), Method: PREINCUBATION). Moreover, the mutagenic call runs as follows: (Test System: AMES SALMONELLA TYPHIMURIUM, Strain/Indicator: TA98, Metabolic Activation: HAMSTER, LIVER, S-9, AROCLOR 1254 (10% OR 30%), Method: PREINCUBATION) “inactive; negative”; (Test System: AMES SALMONELLA TYPHIMURIUM, Strain/Indicator: TA98, Metabolic Activation: HAMSTER, LIVER, S-9, AROCLOR 1254 (10 OR 30%), Method: PREINCUBATION) “inactive; negative”; (Test System: AMES SALMONELLA TYPHIMURIUM, Strain/Indicator: TA98, Metabolic Activation: NONE, Method: PREINCUBATION) “inactive; negative”; (Test System: AMES SALMONELLA TYPHIMURIUM, Strain/Indicator: TA98, Metabolic Activation: RAT, LIVER, S-9, AROCLOR 1254 (10% OR 30%), Method: PREINCUBATION) “inactive; negative”; (Test System: AMES SALMONELLA TYPHIMURIUM, Strain/Indicator: TA98, Metabolic Activation: RAT, LIVER, S-9, AROCLOR 1254 (10 OR 30%), Method: PREINCUBATION) “inactive; negative”; (Test System: AMES SALMONELLA TYPHIMURIUM, Strain/Indicator: TA100, Metabolic Activation: HAMSTER, LIVER, S-9, AROCLOR 1254 (10%), Method: PREINCUBATION) “inactive; negative”. Also, the mutagenic call was “inactive; negative” (Test System: AMES SALMONELLA TYPHIMURIUM, Strain/Indicator: TA100, Metabolic Activation: HAMSTER, LIVER, S-9, AROCLOR 1254 (30%), Method: PREINCUBATION); “inactive; negative” (Test System: AMES SALMONELLA TYPHIMURIUM, Strain/Indicator: TA100, Metabolic Activation: NONE, Method: PREINCUBATION); “inactive; negative” (Test System: AMES SALMONELLA TYPHIMURIUM, Strain/Indicator: TA100, Metabolic Activation: RAT, LIVER, S-9, AROCLOR 1254 (10% OR 30%), Method: PREINCUBATION); “inactive; negative” (Test System: AMES SALMONELLA TYPHIMURIUM, Strain/Indicator: TA100, Metabolic Activation: RAT, LIVER, S-9, AROCLOR 1254 (10 OR 30%), Method: PREINCUBATION); “active; positive” (Test System: AMES SALMONELLA TYPHIMURIUM, Strain/Indicator: TA102, Metabolic Activation: NONE, Method: STANDARD PLATE); “inactive; negative” (Test System: AMES SALMONELLA TYPHIMURIUM, Strain/Indicator: TA1535, Metabolic Activation: HAMSTER, LIVER, S-9, AROCLOR 1254 (10% OR 30%), Method: PREINCUBATION). In addition, the mutagenic call is, setting by setting: (Test System: AMES SALMONELLA TYPHIMURIUM, Strain/Indicator: TA1535, Metabolic Activation: HAMSTER, LIVER, S-9, AROCLOR 1254 (10 OR 30%), Method: PREINCUBATION) “inactive; negative”; (Test System: AMES SALMONELLA TYPHIMURIUM, Strain/Indicator: TA1535, Metabolic Activation: NONE, Method: PREINCUBATION) “inactive; negative”; (Test System: AMES SALMONELLA TYPHIMURIUM, Strain/Indicator: TA1535, Metabolic Activation: RAT, LIVER, S-9, AROCLOR 1254 (10% OR 30%), Method: PREINCUBATION) “inactive; negative”; (Test System: AMES SALMONELLA TYPHIMURIUM, Strain/Indicator: TA1535, Metabolic Activation: RAT, LIVER, S-9, AROCLOR 1254 (10 OR 30%), Method: PREINCUBATION) “inactive; negative”; (Test System: AMES SALMONELLA TYPHIMURIUM, Strain/Indicator: TA2638, Metabolic Activation: NONE, Method: STANDARD PLATE) “inactive; negative”; (Test System: CHINESE HAMSTER V-79, Strain/Indicator: V-79 (HPRT)/6-THIOGUANINE, Metabolic Activation: NONE) “inactive; negative”. In addition, the mutagenic call runs as follows: (Test System: E. COLI, Strain/Indicator: WP2 (PKM101), Metabolic Activation: NONE, Method: STANDARD PLATE) “active; positive”; (Test System: E. COLI, Strain/Indicator: WP2 UVRA (PKM101), Metabolic Activation: NONE, Method: STANDARD PLATE) “active; positive”; (Test System: MOUSE LYMPHOMA, Strain/Indicator: L5178Y (HPRT)/6-THIOGUANINE, Metabolic Activation: NONE, Method: FLUCTUATION TEST) “inactive; negative”; (Test System: MOUSE LYMPHOMA, Strain/Indicator: L5178Y (TK+/TK-), Metabolic Activation: NONE, Method: FLUCTUATION TEST) “inactive; negative”; (Test System: MOUSE LYMPHOMA, Strain/Indicator: L5178Y (TK+/TK-), Metabolic Activation: NONE, Method: SUSPENSION/PLATE) “inactive; negative”; (Test System: MOUSE LYMPHOMA, Strain/Indicator: L5178Y (TK+/TK-), Metabolic Activation: RAT, LIVER, S-9, AROCLOR 1254, Method: SUSPENSION/PLATE) “inactive; negative”.
`CCCC(=O)Nc1snc2ccccc12`: the mutagenic call was “inactive; negative” under setting [1] and “inactive; negative” under setting [2].
As to `CCCCC(CC)COC(=O)c1ccc(C(=O)O)cc1` (centres undefined), the mutagenic call is “inactive; negative” under setting [3]; “inactive; negative” (Test System: AMES SALMONELLA TYPHIMURIUM, Strain/Indicator: TA98, Metabolic Activation: RAT, LIVER, S-9, AROCLOR 1254, Method: STANDARD PLATE); “inactive; negative” under setting [1]; “inactive; negative” (Test System: AMES SALMONELLA TYPHIMURIUM, Strain/Indicator: TA100, Metabolic Activation: RAT, LIVER, S-9, AROCLOR 1254, Method: STANDARD PLATE); “inactive; negative” under setting [4]; “inactive; negative” (Test System: AMES SALMONELLA TYPHIMURIUM, Strain/Indicator: TA1535, Metabolic Activation: RAT, LIVER, S-9, AROCLOR 1254, Method: STANDARD PLATE). The mutagenic call by setting is: under setting [5], “inactive; negative”; (Test System: AMES SALMONELLA TYPHIMURIUM, Strain/Indicator: TA1537, Metabolic Activation: RAT, LIVER, S-9, AROCLOR 1254, Method: STANDARD PLATE) “inactive; negative”; (Test System: AMES SALMONELLA TYPHIMURIUM, Strain/Indicator: TA1538, Metabolic Activation: NONE, Method: STANDARD PLATE) “inactive; negative”; (Test System: AMES SALMONELLA TYPHIMURIUM, Strain/Indicator: TA1538, Metabolic Activation: RAT, LIVER, S-9, AROCLOR 1254, Method: STANDARD PLATE) “inactive; negative”.
For the molecule `Cc1cccc2c1c([N+](=O)[O-])cc[n+]2[O-]`, the mutagenic call (Test System: UDS RODENT PRIMARY CELLS, Strain/Indicator: THY INCORP (NON-S-PHASE), Metabolic Activation: NONE, Method: AUTORADIOGRAPHY) is “active; positive”.
Take `OC(Nc1snc2ccccc12)C(Cl)(Cl)Cl` (centres undefined): the mutagenic call by setting is: under setting [3], “inactive; negative”; (Test System: AMES SALMONELLA TYPHIMURIUM, Strain/Indicator: TA98, Metabolic Activation: S-9, Method: STANDARD PLATE) “inactive; negative”; under setting [1], “inactive; negative”; under setting [2], “inactive; negative”; under setting [4], “inactive; negative”; (Test System: AMES SALMONELLA TYPHIMURIUM, Strain/Indicator: TA1535, Metabolic Activation: S-9, Method: STANDARD PLATE) “inactive; negative”. For the same molecule, the mutagenic call under setting [5] was “inactive; negative” and the mutagenic call (Test System: AMES SALMONELLA TYPHIMURIUM, Strain/Indicator: TA1537, Metabolic Activation: S-9, Method: STANDARD PLATE) is “inactive; negative”.
For `C=CC1(C)CO1` (centres undefined), the mutagenic call is, setting by setting: (End Point: IN VIVO MICRONUCLEUS, Test System: BONE MARROW POLYCHROMATIC ERYTHROCYTES, Species: MOUSE, Strain/Sex: C57/BL/MALE, Route: INTRAPERITONEAL INJECTION) “active; positive”; under setting [3], “inactive; negative”; under setting [1], “inactive; negative”.
